Activity calls are given as the source filed them. The calls are words filed in the database; no cut-off is given here.
Tests used:
[1] = (§1) Apparent permeability from apical to basolateral side of human Caco-2 cell membrane; type: ADME, cell-based
[2] = Inhibition of human P-gp mediated [3H]vinblastine transport activity in human Caco-2 cells; type: cell-based; details: Caco-2, 2 h
[3] = molecular target: ATP-dependent translocase ABCB1 (Homo sapiens, UniProt P08183); experiment: Activation of human P-gp ATPase in human Caco-2 cells at 100 uM; type: cell-based; details: caco-2, 100 µM
ATP-dependent translocase ABCB1, sequence (P08183 whole entry): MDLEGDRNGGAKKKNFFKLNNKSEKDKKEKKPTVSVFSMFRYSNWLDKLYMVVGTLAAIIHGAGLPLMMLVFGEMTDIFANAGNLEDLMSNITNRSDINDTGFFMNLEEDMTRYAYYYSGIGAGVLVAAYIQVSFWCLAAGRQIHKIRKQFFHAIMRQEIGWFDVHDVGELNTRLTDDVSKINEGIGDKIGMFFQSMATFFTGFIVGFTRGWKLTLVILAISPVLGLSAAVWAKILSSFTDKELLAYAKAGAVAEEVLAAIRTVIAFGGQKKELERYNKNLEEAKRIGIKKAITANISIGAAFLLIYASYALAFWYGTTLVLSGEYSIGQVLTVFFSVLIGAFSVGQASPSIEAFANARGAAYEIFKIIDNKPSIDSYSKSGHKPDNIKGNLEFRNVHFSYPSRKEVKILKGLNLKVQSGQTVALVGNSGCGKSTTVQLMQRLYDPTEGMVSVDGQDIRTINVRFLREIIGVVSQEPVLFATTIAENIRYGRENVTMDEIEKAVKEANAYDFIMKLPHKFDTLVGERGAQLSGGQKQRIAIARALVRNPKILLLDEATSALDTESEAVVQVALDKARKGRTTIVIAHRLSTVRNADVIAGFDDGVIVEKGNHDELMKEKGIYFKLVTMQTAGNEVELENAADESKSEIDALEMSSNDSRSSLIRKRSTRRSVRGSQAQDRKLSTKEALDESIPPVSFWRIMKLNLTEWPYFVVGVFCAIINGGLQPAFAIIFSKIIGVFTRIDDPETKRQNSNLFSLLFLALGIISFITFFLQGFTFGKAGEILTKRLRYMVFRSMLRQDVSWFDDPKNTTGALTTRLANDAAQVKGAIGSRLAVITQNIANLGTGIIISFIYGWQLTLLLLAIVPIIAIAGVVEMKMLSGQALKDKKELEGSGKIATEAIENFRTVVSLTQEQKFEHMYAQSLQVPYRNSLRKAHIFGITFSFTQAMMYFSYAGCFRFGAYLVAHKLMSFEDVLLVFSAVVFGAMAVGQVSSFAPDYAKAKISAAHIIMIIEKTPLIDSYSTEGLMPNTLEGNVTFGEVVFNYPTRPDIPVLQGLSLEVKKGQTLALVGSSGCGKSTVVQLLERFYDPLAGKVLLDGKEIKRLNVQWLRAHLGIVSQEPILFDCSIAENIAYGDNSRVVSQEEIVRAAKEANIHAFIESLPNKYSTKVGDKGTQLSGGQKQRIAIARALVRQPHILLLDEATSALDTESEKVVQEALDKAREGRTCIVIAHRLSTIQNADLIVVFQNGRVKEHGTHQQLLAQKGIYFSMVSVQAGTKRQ

[4] = (§2) Apparent permeability from basolateral to apical side of human Caco-2 cell membrane; type: ADME, cell-based
[5] = system: MCF7; experiment: Antiproliferative activity against adriamycin resistant human MCF7 cells after 24 hrs by MTT assay; type: functional, cell-based
[6] = Activity at P-pg
[7] = system: Caco-2; experiment: Ratio of permeability from […] side of human Caco-2 cell membrane; type: ADME, cell-based
[8] = system: Caco-2; experiment: as §1; type: ADME, cell-based
[9] = system: Caco-2; experiment: as §2; type: ADME, cell-based
[10] = molecular target: T1, BCRP (ABCG2) (Homo sapiens, UniProt Q9UNQ0); experiment: Inhibition of human BCRP mediated [3H]mitoxantrone transport activity in human Caco-2 cells at 100 uM; type: cell-based; details: Caco-2, probe [3H]mitoxantrone
T1 sequence (Q9UNQ0 whole entry): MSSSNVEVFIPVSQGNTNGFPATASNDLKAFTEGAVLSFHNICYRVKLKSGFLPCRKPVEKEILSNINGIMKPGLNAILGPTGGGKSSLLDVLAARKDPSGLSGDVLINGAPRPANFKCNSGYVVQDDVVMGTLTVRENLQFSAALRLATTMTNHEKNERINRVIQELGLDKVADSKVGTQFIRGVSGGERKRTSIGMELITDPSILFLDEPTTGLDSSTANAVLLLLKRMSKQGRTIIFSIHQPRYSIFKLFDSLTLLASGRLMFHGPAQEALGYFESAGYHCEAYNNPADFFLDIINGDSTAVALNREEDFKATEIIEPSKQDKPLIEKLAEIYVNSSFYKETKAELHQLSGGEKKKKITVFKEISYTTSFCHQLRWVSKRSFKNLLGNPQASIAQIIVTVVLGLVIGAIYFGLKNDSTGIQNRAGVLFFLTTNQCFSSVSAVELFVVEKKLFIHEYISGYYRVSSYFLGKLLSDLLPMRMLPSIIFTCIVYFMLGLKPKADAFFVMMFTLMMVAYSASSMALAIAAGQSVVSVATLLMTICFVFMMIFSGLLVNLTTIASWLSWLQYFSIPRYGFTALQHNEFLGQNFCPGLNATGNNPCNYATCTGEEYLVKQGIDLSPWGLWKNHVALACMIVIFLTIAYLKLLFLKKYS

[11] = molecular target: T2, Broad substrate specificity ATP-binding cassette transporter ABCG2 (Homo sapiens, UniProt Q9UNQ0); experiment: Inhibition of human BCRP mediated [3H]mitoxantrone transport activity in human Caco-2 cells; type: cell-based
T2 sequence (Q9UNQ0 whole entry): T1 sequence (Q9UNQ0 whole entry)

Structure (SMILES)	Papp A→B [1] [×10⁻⁶ cm/s]	EC50 [2] [µM]	Activity [3]	Papp B→A [4] [×10⁻⁶ cm/s]	Activity [5]	EC50 [6] [µM]	Ratio [7]	Papp [8] [×10⁻⁶ cm/s]	Papp [9] [×10⁻⁶ cm/s]	inhibition at 100 µM [10] [%]	Activity [11]
COc1cc2c(cc1OC)CN(Cc1ccc(-c3ccccc3)cc1)CC2	77.7	0.1	Not Active	141	inactive	–	–	–	–	–	–
COc1cc2c(cc1OC)CN(C(=O)c1ccc3cc(O)ccc3c1)CC2	25.1	0.65	40%	190	–	–	–	–	–	–	–
COc1cc2c(cc1OC)CN(Cc1ccc3ccccc3c1)CC2	21.6	0.8	Not Active	180	–	–	–	–	–	–	–
COc1cc2c(cc1OC)CN(C(=O)c1ccc(-c3ccc(O)cc3)cc1)CC2	28	3.5	Not Active	277	–	–	–	–	–	–	–
COc1cccc2c1CCCC2CCCN1CCN(C2CCCCC2)CC1 (stereo not drawn)	–	–	–	–	–	0.55	–	–	–	–	–
COc1cc2c(cc1OC)CN(Cc1ccc3cc(O)ccc3c1)CC2	35.3	0.45	10%	235	–	–	–	–	–	–	–
COc1cc2c(cc1OC)CN(C(=O)c1ccc3ccccc3c1)CC2	32.4	20	10%	415	–	–	–	–	–	–	–
COc1ccc2cc(CN3CCc4cc(OC)c(OC)cc4C3)ccc2c1	–	0.3	Not Active	–	–	–	3.6	18.7	67.7	–	–
COc1cc2c(cc1OC)CN(CCc1ccc(NC(=O)c3cccc4c(=O)c5cccc(OC)c5[nH]c34)cc1)CC2	–	2	Not Active	–	–	–	–	–	–	–	–
COc1cc2c(cc1OC)CN(Cc1ccccc1-c1ccccc1)CC2	21.6	15	Not Active	197	–	–	–	–	–	–	–
COc1cc2c(cc1OC)CN(C(=O)c1ccc(-c3ccccc3)cc1)CC2	60.1	28	35%	244	–	–	–	–	–	–	–
COc1ccc2cc(C(=O)N3CCc4cc(OC)c(OC)cc4C3)ccc2c1	19.3	18	Not Active	123	–	–	–	–	–	–	–
COc1cc2c(cc1OC)CN(Cc1ccc(-c3ccc(O)cc3)cc1)CC2	47.6	0.05	Not Active	60.9	inactive	–	–	–	–	19	–
COc1cc2c(cc1OC)CN(CC/C=C1\CCCc3c(OC)cccc31)CC2	–	1.64	Not Active	–	–	–	–	–	–	–	Active
COc1cc2c(cc1OC)CN(Cc1cccc(-c3ccccc3)c1)CC2	30.1	6.5	Not Active	366	–	–	–	–	–	–	–

From ChEMBL document CHEMBL1144857, “4-Biphenyl and 2-naphthyl substituted 6,7-dimethoxytetrahydroisoquinoline derivatives as potent P-gp modulators” (Bioorg Med Chem, 2008)
